This is an account of results in US5972958A, “4-aminoalkoxy-1,3-dihydro-benzoimidazol-2-thiones” (American Home Products Corporation, priority 1998, dated 1999).

The structures appear in SMILES notation.

In test [1] the target is T1, dopamine D2 receptor (Rattus norvegicus, UniProt P61169). Put plainly: Affinity for the dopamine autoreceptor, 3H-quinpirole (D2 Quin.) binding in homogenized rat striatal brain tissue. Details: homogenized rat striatal brain tissue; from tissue; host or cells: rat striatal brain tissue (homogenate). Conditions: high-affinity agonist state. The method, then:
Affinity for the dopamine autoreceptor was established by a modification of the standard experimental test procedure of Seemen and Schaus, European Journal of Pharmacology 203: 105-109, 1991, wherein homogenized rat striatal brain tissue is incubated with ^3 H-quinpirole (Quin.) and various concentrations of test compound, filtered and washed and counted in a Betaplate scintillation counter.

The target in test [2] is T1, dopamine D2 receptor. Kind of test: Affinity for the dopamine D-2 receptor, 3H-spiroperidol (D2 Spiper) binding in homogenized limbic brain tissue. Conditions: low-affinity agonist state. On the set-up: homogenized limbic brain tissue; from tissue; host or cells: limbic brain tissue (homogenate). The method, then:
High affinity for the dopamine D-2 receptor was established by the standard experimental test procedure of Fields, et al., Brain Res., 136, 578 (1977) and Yamamura et al., eds., Neurotransmitter Receptor Binding, Raven Press, N.Y. (1978) wherein homogenized limbic brain tissue is incubated with ^3 H-spiroperidol (Spiper.) and various concentrations of test compound, filtered and washed and shaken with Hydrofluor scintillation cocktail (National Diagnostics) and counted in a Packard 460 CD scintillation counter.

T1 sequence (P61169 whole entry): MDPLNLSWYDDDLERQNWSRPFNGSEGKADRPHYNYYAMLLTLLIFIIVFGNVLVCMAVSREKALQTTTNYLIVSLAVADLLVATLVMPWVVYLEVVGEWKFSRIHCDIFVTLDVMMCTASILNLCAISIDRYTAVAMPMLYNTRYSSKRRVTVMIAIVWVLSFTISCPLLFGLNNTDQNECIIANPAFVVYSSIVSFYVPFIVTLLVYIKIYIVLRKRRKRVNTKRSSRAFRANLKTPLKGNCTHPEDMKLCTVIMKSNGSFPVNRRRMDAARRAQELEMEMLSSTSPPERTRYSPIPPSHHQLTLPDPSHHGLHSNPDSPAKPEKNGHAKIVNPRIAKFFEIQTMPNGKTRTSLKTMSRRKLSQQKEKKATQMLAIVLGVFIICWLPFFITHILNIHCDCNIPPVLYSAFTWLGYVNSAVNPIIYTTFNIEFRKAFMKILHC

Regarding `S=c1[nH]c2cc(Cl)cc(OCCNCc3ccsc3)c2[nH]1` [Example 9, 6-Chloro-4-{2-[(thiophen-3-ylmethyl)-amino]-ethoxy}-1,3-dihydro-benzoimidazole-2-thione], the figures for the 50% inhibitory concentration (IC50) on dopamine D2 receptor [1] and on dopamine D2 receptor [2] were 0.18 nM and 85 nM, respectively.

Take `S=c1[nH]c2cccc(OCCNCc3cccc4ccccc34)c2[nH]1` [Example 4, 4-{2-[(Naphthalen-1-ylmethyl)-amino]-ethoxy}-1,3-dihydro-benzoimidazole-2-thione]: the IC50 on dopamine D2 receptor [1] turned out to be 0.43 nM; at dopamine D2 receptor [2] it was 36.9 nM.

On to `Sc1nc2c(OCCNCc3ccccc3)cc(Cl)cc2[nH]1` [Example 7, 4-(2-Benzylamino-ethoxy)-6-chloro-1,3-dihydro-benzoimidazole-2-thione], for which the IC50 at dopamine D2 receptor [1] is 0.39 nM; on dopamine D2 receptor [2], 57 nM.

As to `S=c1[nH]c2cccc(OCCNCc3ccccc3)c2[nH]1` [Example 1, 4-(2-Benzylamino-ethoxy)-1,3-dihydro-benzoimidazol-2-thione], the results for the IC50 on dopamine D2 receptor [1] and at dopamine D2 receptor [2] were 0.36 nM and 33.4 nM, respectively.

As to `S=c1[nH]c2cccc(OCCCNCc3ccccc3)c2[nH]1` [Example 3], the results for the IC50 on dopamine D2 receptor [1] and on dopamine D2 receptor [2] were 14.9 nM and 1190 nM, respectively.

In the case of `CC(C)(C)c1ccc(CNCCOc2cccc3[nH]c(=S)[nH]c23)cc1` [Example 5, 4-[2-(4-tert-Butyl-benzylamino)-ethoxy]-1,3-dihydro-benzoimidazole-2-thione], the IC50 at dopamine D2 receptor [1] came to 0.82 nM; on dopamine D2 receptor [2], 6.87 nM.

`S=c1[nH]c2cc(Cl)cc(OCCNCc3cccs3)c2[nH]1` [Example 8, 6-Chloro-4-{2-[(thiophen-2-ylmethyl)-amino]-ethoxy}-1,3-dihydro-benzoimidazole-2-thione]: the IC50 on dopamine D2 receptor [1] stood at 0.37 nM; on dopamine D2 receptor [2] it was 88 nM.

For `S=c1[nH]c2cccc(OCCN3CCc4ccccc4C3)c2[nH]1` [Example 10, 4-[2-(3,4-Dihydro-1H-isoquinolin-2-yl)-ethoxy]-1,3-dihydro-benzoimidazole-2-thione], the IC50 at dopamine D2 receptor [1] amounted to 2.67 nM; at dopamine D2 receptor [2], 234 nM.

`Cc1ccc(CNCCOc2cccc3[nH]c(=S)[nH]c23)cc1` [Example 2, 4-[2-(4-Methyl-benzylamino)-ethoxy]-1,3-dihydro-benzoimidazole-2-thione]: the IC50 was determined as 0.42 nM on dopamine D2 receptor [1] and 37.7 nM at dopamine D2 receptor [2].

As for `S=c1[nH]c2cccc(OCCNCc3ccc(Cl)cc3)c2[nH]1` [Example 6, 4-[2-(4-Chloro-benzylamino)-ethoxy]-1,3-dihydro-benzoimidazole-2-thione], the IC50 on dopamine D2 receptor [1] worked out at 0.21 nM; at dopamine D2 receptor [2] it was 88 nM.
